Results as given in PubChem BioAssay AID1963597 (National Center for Advancing Translational Sciences (NCATS), 2024).

Each compound was assayed on human liver microsomes, metabolic stability half-life (assay: NCATS Human Liver Microsomal (HLM) Stability Profiling). Details: higher = more stable; screened at 1 µM (by protocol).
Outline: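 Substrate depletion (in vitro t1/2): 1 µM compound with 0.5 mg/mL microsomes and NADPH regenerating system, phosphate buffer pH 7.4, 37 °C. Sampled at 0, 5, 10, 15, 30, 60 min into cold acetonitrile with albendazole internal standard for MS quantification.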

| SMILES | half-life [min] |
| --- | --- |
| COc1cc(OC)cc(OC)c1 | 18.1 |
| CNc1ccc2oc(C[C@H]3O[C@@]4(CC[C@H]3C)O[C@H](C(C)C(=O)c3ccc[nH]3)[C@H](C)C[C@H]4C)nc2c1C(=O)O (some centres not stated) | > 120 |
| CCCc1nc(C)c2c(=O)[nH]c(-c3cc(S(=O)(=O)N4CCN(CC)CC4)ccc3OCC)nn12 | > 120 |
| Cc1cn(C[C@H](N)C(=O)O)c(=O)n(Cc2ccsc2C(=O)O)c1=O | 53.1 |
| CC1COC2(c3ccccc3Cl)c3cc(Cl)ccc3NC(=O)CN12 (configuration not stated) | 9.03 |
| OCCN1CCN(CC/C=C2/c3ccccc3Sc3ccc(C(F)(F)F)cc32)CC1 | 48.4 |
| COc1cccc(OC)c1-c1nc(C(=O)N[C@@H](CC(C)C)C(=O)O)cn1-c1ccnc2cc(Cl)ccc12 | > 120 |
| Cc1onc(-c2ccccc2)c1-c1ccc(S(N)(=O)=O)cc1 | > 120 |
| FC(F)(F)Oc1ccc(-c2ccc3nnc(C(F)(F)F)n3c2)cc1 | > 120 |
| O=C(CC1N=C2c3ccccc3N=C(SCc3ccc(Cl)cc3)N2C1=O)NCCc1ccccc1 (configuration not stated) | 4.19 |
| Cc1nc(NC(=O)N2CCCC2C(N)=O)sc1-c1ccnc(C(C)(C)C(F)(F)F)c1 (configuration not stated) | > 120 |
| O=C(Nc1cccc(C(F)(F)F)c1)Nc1cc(S(=O)(=O)NC2CC2)ccc1-c1ccsc1 | 4.46 |
| CN(C)CCN(Cc1ccc(Cl)cc1)c1ccccn1 | 18.8 |
| O=C(O)c1ccc(CN2CC(COc3ccccc3)C3(C2)CN(c2ccccc2)C3)cc1 (configuration not stated) | 64.8 |
| COc1cc2c(c(OC)c1OC)-c1ccc(OC)c(=O)cc1[C@@H](NC(C)=O)CC2 | > 120 |
| COc1cc(C)c(/C=C/C(C)=C/C=C/C(C)=C/C(=O)O)c(C)c1C | 32 |
| CCN(CC)Cc1cccc(/C=C/c2nc3ccc(F)cc3c(=O)n2-c2ccccc2Cl)n1 | 25.8 |
| N#Cc1cccc(CN2CCOC[C@H]2c2ncc(-c3ccc(F)cc3)[nH]2)c1 | 3.38 |
| COc1ccc(N(C(=O)Nc2c(C)cccc2C)c2cc(Nc3ccc(N4CCN(C)CC4)cc3)ncn2)c(OC)c1 | 17.1 |
| Cc1ccc(S(=O)(=O)Nc2ccccc2N2CCCCC2)cc1 | 3.04 |
| Cc1cc(Nc2nc(N[C@@H](C)c3ccc(F)cc3)c(C#N)cc2F)n[nH]1 | > 120 |
| CCOC(=O)C1(c2ccccc2)CCN(CCc2ccc(N)cc2)CC1 | 86.5 |
| CC(=O)N1C[C@H](O)C[C@H]1C(=O)O | 50.1 |
| CC1=C(C(=O)Nc2cccc(CN)c2)C(c2ccccc2Cl)N=C(Nc2nc3ccccc3o2)N1 (configuration not stated) | > 120 |
| COC(=O)[C@@H]1[C@H]2C[C@H]3c4[nH]c5ccccc5c4CCN3C[C@@H]2CC[C@@H]1O | 83.9 |
| CC1CCN(CC(=O)N2CCCc3c2c(=O)oc2ccc(OCc4ccccc4)cc32)CC1 | 1.52 |

| SMILES | half-life [min] |
| --- | --- |
| CCc1cccc2cc(C(O)CNC(C)(C)C)oc12 (configuration not stated) | 96.4 |
| Nc1ncnc2c1ncn2Cc1c(F)cccc1Cl | > 120 |
| O=C(NN1CCCC1)NS(=O)(=O)c1ccc(Cl)cc1 | > 120 |
| O=C(O)COC(=O)Cc1ccccc1Nc1c(Cl)cccc1Cl | 2.83 |
| CN(C)c1cccc(Oc2cnc(Nc3cccc(O)c3)nc2)c1 | 21.9 |
| CCCCNc1ncc2c(-c3ccc(F)cc3)nn(CC3CCC(N)CC3)c2n1 (configuration not stated) | > 120 |
| Cc1ccccc1-n1c([C@H](C)Nc2nc(N)nc3nc[nH]c23)nc2cccc(C)c2c1=O | 103 |
| COc1ccc(C2Sc3ccccc3N(CCN(C)C)C(=O)C2OC(C)=O)cc1 (configuration not stated) | 68.1 |
| Cc1nn(C)c2c1C(c1ccc(C(F)(F)F)cc1)C(C#N)=C(N)O2 (configuration not stated) | 11 |
| CCOc1ccccc1OCCN[C@H](C)Cc1ccc(OC)c(S(N)(=O)=O)c1 | > 120 |
| Cc1ccc2c(c1)c1c3n2CCNC3CCC1 (configuration not stated) | 8.9 |
| O=C(NC1CC1)C1CCCN1C(=O)c1cccc(-c2ccccn2)c1 (configuration not stated) | > 120 |
| N#Cc1cn([C@@H]2O[C@H](CO)[C@H](O)[C@@H]2O)c2ncnc(N)c12 | > 120 |
| O=C(O)c1cccc(CN2C(=O)/C(=C(\c3ccccc3)c3ccc(Cl)cc3)c3ccccc32)c1 | > 120 |
| COc1ccc(C(=O)C2CCN(CC(=O)N(Cc3nc4c(c(=O)[nH]3)COCC4)CC3CC3)CC2)cc1 | 81.7 |
| C[C@]12CC[C@@H]3c4ccc(O)cc4CC[C@H]3[C@@H]1C[C@@H](O)[C@@H]2O | > 120 |
| Cc1cc(C)c(/C=C2\C(=O)Nc3ccccc32)[nH]1 | 11 |
| CCOCCCNC(=O)CCC(=O)NNc1nc2ccccc2c2nc(-c3ccccc3)nn12 | 88 |
| Cc1ccc(S(=O)(=O)NC(=O)NN2CCCCCC2)cc1 | > 120 |
| CCOc1cccc(NC(=O)c2ccc(N3CCCC3)c(C(F)(F)F)c2)c1 | 23 |
| CCN1CCCC1=O | > 120 |
| O=C(CCc1nnc2n(Cc3ccc(Cl)cc3)c(=O)c3ccccc3n12)NCCC1=CCCCC1 | 1.05 |
| CNC(=O)[C@H](Cc1ccccc1)NC(=O)[C@H](CC(C)C)[C@H](CSc1cccs1)C(=O)NO | 110 |
| C=C1CC[C@@]2(O)[C@H]3Cc4ccc(O)c5c4[C@@]2(CCN3CC2CC2)[C@H]1O5 | > 120 |
| CC(=O)[C@@]1(O)CC[C@H]2C3CCC4=CC(=O)CC[C@]4(C)C3CC[C@@]21C (some centres not stated) | 9.86 |
| Cc1c(Cl)ccc2sc(N3CCN(C(=O)CS(=O)(=O)c4ccccc4)CC3)nc12 | 61.2 |
